Assay results published in patent US8969584B2, “PIM kinase inhibitors and preparation methods and use in medicinal manufacture thereof” (Jikai Biosciences, Inc., priority 2011, dated 2015).

Molecular target: T1, PIM-1 kinase (Homo sapiens, UniProt P11309)
T1 construct: purchased Millipore 14-573
Test: PIM Kinase Activity Assay-IMAP Fluorescence Polarization Assay (PIM-1)
Type: biochemical
Conditions: 3 μM concentration
Protocol: In the present invention, the PIM activities of the compounds were tested by BioDuro (Building E, No. 29 Life Science Park Road, Changping District, Beijing, 102206, P.R. China). The method used for testing is PIM Kinase Activity Assay-IMAP Fluorescence Polarization Assay PIM Kinase Activity Assay-IMAP Fluorescence Polarization Assay 1. Principle PIM kinases are serine/threonine protein kinases, and they can phosphorylate 5-FAM labeled small peptide substrates. Fluorescence polarization is less for non-phosphorylated substrates since that can not bind to the binder (metal binding nanoparticles). On the other hand, fluorescence polarization is more for phosphorylated substrates since that can bind to the binder. The level of 5-FAM labeled small peptide substrates phosphorylation reflects the activities of PIM kinase. By measuring their ability of inhibiting PIM kinase of the compounds of the present invention, their activities of inhibiting PIM kinases can be determined 2. Instrument EnVision (PerkinElmer, Waltham, Mass.) 3. Reagents and 384 well plates PIM1 (Millipore Cat. #14-573) (Millipore Corporation, Billerica, Mass.) PIM2 (Millipore Cat. #14-607) (Millipore Corporation, Billerica, Mass.) 5-FAM labeled peptide (5-FAM-RSRHSSYPAGT, AnaSpec Cat. #63801) (AnaSpec Inc., Fremont, Calif.) IMAP FP Screening Express kit (IMAP FP Screening kit) (Molecular Devices Cat. #R8127) (Molecular Devices, Sunnyvale, Calif.) IMAP Progressive binding reagent IMAP Progressive binding buffer A (5×) IMAP Progressive binding buffer B (5×) 384-well black plate (Corning Cat. #3573) (Corning, Midland Mich.) 4. Assay Buffer
a) 10 mM compound stock solution is diluted to appropriate concentration with 100% DMSO, then diluted 10 fold to targeted concentration with test butter to keep DMSO concentration at 10%
1 ul of compound solution and 4 ul of enzyme (PIM-1 final concentration 0.025 nM, PIM-2 concentration 3 nM) is incubated at 23° C. for 15 min, 2.5 ul ATP (for PIM-1 and PIM-2, the final ATP concentrations are 30 uM and 5 uM respectively) 2.5 ul 5-FAM labeled peptide (final concentration 100 nM) was added to start the reaction. The reaction is run at 23° C. for 60 min DMSO is used in place of compound stock solution as maximum reference and assay buffer is used in place of enzyme as minimum reference. c) add 30 ul IMAP binding reagent (containing 75% IMAP Buffer A, 25% IMAP Buffer B, 1/600 dilution of beads) to stop the reaction, incubated at room temperature for 60 min d) Measure fluorescence polarization, excitation wavelength: 485 nm, emission wavelength 530 nm. 6. Data process IC50 values were calculated using Graphpad Prism®.

T1 sequence (P11309 whole entry): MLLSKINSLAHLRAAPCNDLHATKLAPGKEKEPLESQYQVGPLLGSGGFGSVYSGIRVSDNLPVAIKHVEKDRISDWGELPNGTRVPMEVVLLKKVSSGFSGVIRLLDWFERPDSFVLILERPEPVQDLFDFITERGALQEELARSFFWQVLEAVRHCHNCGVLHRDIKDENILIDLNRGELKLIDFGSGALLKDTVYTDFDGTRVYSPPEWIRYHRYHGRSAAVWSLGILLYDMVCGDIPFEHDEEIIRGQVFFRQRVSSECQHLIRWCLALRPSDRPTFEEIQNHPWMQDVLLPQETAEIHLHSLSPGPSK

Compound | inhibition at 3 µM [%]
CC(C)(C)OC(=O)N1CCC(c2nc(C(=O)Nc3cnsc3N3CCOCC3)cs2)CC1 [Compound 25, tert-butyl 4-(4-((5-morpholinoisothiazol-4-yl)carbamoyl)thiazol-2-yl)piperidine-1-carboxylate] | 20 to 50
O=C(Nc1cnsc1N1CCOCC1)c1csc(C2CCNCC2)n1 [Compound 26, N-(5-morpholinoisothiazol-4-yl)-2-(piperidin-4-yl)thiazole-4-carboxamide] | 20 to 50
O=C(Nc1cnsc1N1CCOCC1)c1csc(C2COc3ccccc3O2)n1 (stereo not shown) [Compound 28, 2-(2,3-dihydrobenzo[b][1,4]dioxin-2-yl)-N-(5-morpholinoisothiazol-4-yl)thiazole-4-carboxamide] | 20 to 50
O=C(Nc1cnsc1N1CCNCC1)c1csc(N2CCOCC2)n1 [Compound 36, 2-morpholino-N-(5-(piperazin-1-yl)isothiazol-4-yl)thiazole-4-carboxamide] | 20 to 50
CC(=O)Nc1nc(C(=O)Nc2cnsc2N2CCNCC2)cs1 [Compound 39, 2-acetamido-N-(5-(piperazin-1-yl)isothiazol-4-yl)thiazole-4-carboxamide] | 20 to 50
O=C(Nc1cnsc1N1CCNCC1)c1csc(C2COc3ccccc3O2)n1 (stereo not shown) [Compound 40, 2-(2,3-dihydrobenzo[b][1,4]dioxin-2-yl)-N-(5-(piperazin-1-yl)isothiazol-4-yl)thiazole-4-carboxamide] | 20 to 50
Cc1cc(C(=O)Nc2cnsc2N2CCNCC2)nn1-c1ccccc1F [Compound 41, 1-(2-fluorophenyl)-5-methyl-N-(5-(piperazin-1-yl)isothiazol-4-yl)-1H-pyrazole-3-carboxamide] | 20 to 50
O=C(Nc1cnsc1N1CCNCC1)c1cc(-c2ccccc2F)n[nH]1 [Compound 42, 3-(2-fluorophenyl)-N-(5-(piperazin-1-yl)isothiazol-4-yl)-1H-pyrazole-5-carboxamide] | 20 to 50
O=C(Nc1cnsc1N1CCNCC1)c1coc(-c2ccccc2)n1 [Compound 43, 2-phenyl-N-(5-(piperazin-1-yl)isothiazol-4-yl)oxazole-4-carboxamide] | 20 to 50
O=C(Nc1cnsc1N1CCc2c(O)cccc2C1)c1cccc(-c2c(F)cccc2F)n1 [Compound 52, 6-(2,6-difluorophenyl)-N-(5-(5-hydroxy-3,4-dihydroisoquinolin-2(1H)-yl)isothiazol-4-yl)picolinamide] | 20 to 50
